# Test results from patent US12653801B2, “Digestive lipase activity inhibitor, blood triglyceride concentration increase inhibitor, and fat absorption inhibitor” (Pharma Foods International Co., Ltd., priority 2020, dated 2026).
# Assays:
# [1] = test system: digestive lipase solution (mixture of pancreatic lipase, intestinal lipase, and the like) from rat intestinal acetone powder; experiment: Test 1: digestive lipase activity inhibition test with linoleic acid and oleic acid (Lipase Kit S, absorbance 412 nm); type: biochemical; settings: DMSO solution
# Protocol: 30 mL of 0.1 M citrate buffer solution (pH 6.0) was added to 30 mg of rat intestinal acetone powder (manufactured by SIGMA Corporation), shaken in ice for 1 hour, and centrifuged at 4° C. and 10,000 rpm for 45 minutes, to obtain a digestive lipase solution. The digestive lipase solution is a mixture of pancreatic lipase, intestinal lipase, and the like. […] After that, 25 μL of the substrate solution was added, and the reaction was carried out at 30° C. for 30 minutes in the dark. After that, 700 μL of a reaction stop solution was added, and the absorbance at 412 nm was measured for this solution. As the coloring solution, the substrate solution, the esterase inhibitor, and the reaction stop solution, those attached to Lipase Kit S (manufactured by SB Bioscience Co., Ltd.) were used. A control was prepared in a new 1.5 mL capacity tube for the purpose of measuring the absorbance of the above samples and reagents themselves. […] After that, 700 μL of reaction stop solution and 25 μL of substrate solution were added, and the absorbance at 412 nm was measured. In addition, blank a was prepared in the same manner as in the activity evaluation except that only DMSO was added instead of the DMSO solution of each sample, and blank b was prepared in the same manner as the control by adding only DMSO (control blank). Absorbance at 412 nm was also measured for blank a and blank b. Digestive lipase activity when each sample was added was calculated by the following equation. Digestive lipase activity (%)=100×(absorbance of each sample−absorbance of control)/(absorbance of blank a−absorbance of blank b) (Results)
# [2] = test system: digestive lipase solution (mixture of pancreatic lipase, intestinal lipase, and the like) from rat intestinal acetone powder; experiment: Test 2: digestive lipase activity inhibition test with mixture of linoleic acid and oleic acid; type: biochemical; settings: 0.009 mg/mL linoleic acid aqueous solution, final concentration
# Protocol: A control was prepared in a new 1.5 mL capacity tube for the purpose of measuring the absorbance of the above samples and reagents themselves. […] After that, 700 μL of reaction stop solution and 25 μL of substrate solution were added, and the absorbance at 412 nm was measured. […] Absorbance at 412 nm was also measured for blank a and blank b.
# First, the digestive lipase activity inhibition rate of each sample was calculated according to the equation shown below.
smiles,measurement,setting,value
CCCCC/C=C\C/C=C\CCCCCCCC(=O)O [linoleic acid],Digestive lipase activity,"[1]; 0.19 mg/mL final concentration, 30° C. 30 minutes",8.9%
same,Digestive lipase activity inhibition rate,[2],9.6%
CCCCCCCC/C=C\CCCCCCCC(=O)O [oleic acid],Digestive lipase activity,"[1]; 0.16 mg/mL final concentration, 30° C. 30 minutes",7.1%
"c1cc2c(cc1[C@H]1OC[C@H]3[C@@H]1CO[C@@H]3c1ccc3c(c1)OCO3)OCO2 [sesamin, reference compound]",Digestive lipase activity,"[1]; 0.044 mg/mL final concentration, for comparison",110.9%
